What was measured:
surinam grass = test: Test E preemergence herbicide test; type: in vivo, Brachiaria decumbens; set-up: key: 0 = no effect, 100 = complete control
In short: (§1)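 Test chemicals, formulated in a surfactant-containing non-phytotoxic solvent blend, are applied preemergence to seeded silt loam soil. After 21 days in the greenhouse, response is scored visually relative to controls, where 100 means complete control and 0 means no effect.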

ryegrass, Italian = test: Test E preemergence herbicide test; type: in vivo, Lolium multiflorum; set-up: key: 0 = no effect, 100 = complete control
In short: as §1

panicum, fall = test: Test E preemergence herbicide test; type: in vivo, Panicum dichotomiflorum; set-up: key: 0 = no effect, 100 = complete control
In short: as §1

cupgrass, woolly = test: Test C pre-/postemergence herbicide test; type: in vivo, Eriochloa villosa
In short: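 Compound solutions contained surfactant in a non-phytotoxic solvent. These were sprayed onto pots of loam/sand sown with seeds, and onto young plants (2 to 18 cm, 1- to 4-leaf) in sphagnum peat–vermiculite mix. Visual injury scores (0 none, 100 complete control) were recorded after 13 to 15 days.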

bromegrass, downy = test: Test D pre-/postemergence herbicide test; type: in vivo, Bromus tectorum; conditions: for Plant response rating: Bromegrass, Downy, scale 0 to 100; for Plant response rating, Bromegrass, Downy: scale 0 to 100 (0 no effect, 100 complete control)
In short: (§2)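 Greenhouse pre- and postemergence screen with surfactant-containing non-phytotoxic solvent formulations. Silt loam soil served for preemergence application, and peat/vermiculite medium for postemergence application at 2–18 cm height. Visual 0–100 control ratings versus controls were recorded 7 to 21 days later.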

kochia = test: Test D pre-/postemergence herbicide test; type: in vivo, Kochia scoparia; conditions: for Plant response rating: Kochia, scale 0 to 100; for Plant response rating, Kochia: scale 0 to 100 (0 no effect, 100 complete control)
In short: as §2

[1] = Preemergence, 62 g ai/ha, scale 0 to 100
[2] = Preemergence, 125 g ai/ha, scale 0 to 100 (0 no effect, 100 complete control)
[3] = Preemergence, 31 g ai/ha, scale 0 to 100 (0 no effect, 100 complete control)
[4] = Preemergence, 250 g ai/ha, scale 0 to 100 (0 no effect, 100 complete control)

SMILES	Plant response rating, Surinam Grass (surinam grass; 16 g ai/ha)	Plant response rating, Surinam Grass (surinam grass; 31 g ai/ha)	Plant response rating, Surinam Grass (surinam grass; 62 g ai/ha)	Plant response rating, Surinam Grass (surinam grass; 125 g ai/ha)	Plant response rating, Surinam Grass (surinam grass; 250 g ai/ha)	Plant response rating, Ryegrass, Italian (ryegrass, Italian; 16 g ai/ha)	Plant response rating, Ryegrass, Italian (ryegrass, Italian; 31 g ai/ha)	Plant response rating, Ryegrass, Italian (ryegrass, Italian; 62 g ai/ha)	Plant response rating, Ryegrass, Italian (ryegrass, Italian; 125 g ai/ha)	Plant response rating, Ryegrass, Italian (ryegrass, Italian; 250 g ai/ha)	Plant response rating, Panicum, Fall (panicum, fall; 16 g ai/ha)	Plant response rating, Panicum, Fall (panicum, fall; 31 g ai/ha)	Plant response rating, Panicum, Fall (panicum, fall; 62 g ai/ha)	Plant response rating, Panicum, Fall (panicum, fall; 250 g ai/ha)	Plant response rating, Panicum, Fall (panicum, fall; 125 g ai/ha)	Plant response rating, Bromegrass, Downy (bromegrass, downy; Preemergence, 62 g ai/ha)	Plant response rating, Bromegrass, Downy (bromegrass, downy; Preemergence, 31 g ai/ha)	Plant response rating (bromegrass, downy; Preemergence, 250 g ai/ha)	Plant response rating, Kochia (kochia; Preemergence, 62 g ai/ha)	Plant response rating, Kochia (kochia; Preemergence, 31 g ai/ha)	other results
O=C1NCC(c2ccc(Cl)c(Cl)c2)C1C(=O)Nc1ccccc1F (racemic) [Compound 14]	0	0	0	20	60	0	0	0	0	0	0	0	0	40	–	–	–	–	–	–	Plant response rating, Cupgrass, Woolly (cupgrass, woolly; [1]): 0; Plant response rating, Cupgrass, Woolly (cupgrass, woolly; [2]): 0; Cupgrass, Woolly plant response rating (cupgrass, woolly; [3]): 0; Plant response rating, Cupgrass, Woolly (cupgrass, woolly; [4]): 80
O=C1NCC(c2ccc(F)c(F)c2)C1C(=O)Nc1cccc(F)c1F (centres unmarked) [Compound 17, N-(2,3-difluorophenyl)-4-(3,4-difluorophenyl)-2-oxo-3-pyrrolidinecarboxamide]	0	0	50	70	75	0	0	0	0	0	0	0	0	0	0	–	–	–	–	–	Plant response rating (bromegrass, downy; Postemergence, 16 g ai/ha): 0; Plant response rating (bromegrass, downy; Postemergence, 31 g ai/ha): 0; Plant response rating (bromegrass, downy; Postemergence, 62 g ai/ha): 0; Plant response rating (bromegrass, downy; Postemergence, 125 g ai/ha): 0; Plant response rating (bromegrass, downy; Postemergence, 250 g ai/ha): 0; Plant response rating (kochia; Postemergence, 16 g ai/ha): 0; Plant response rating (kochia; Postemergence, 31 g ai/ha): 0; Plant response rating (kochia; Postemergence, 62 g ai/ha): 20; Plant response rating (kochia; Postemergence, 125 g ai/ha): 20; Plant response rating (kochia; Postemergence, 250 g ai/ha): 40; Plant response rating, Cupgrass, Woolly (cupgrass, woolly; Postemergence, 31 g ai/ha, scale 0 (no effect) to 100 (complete control)): 0; Plant response rating, Cupgrass, Woolly (cupgrass, woolly; Postemergence, 62 g ai/ha, scale 0 to 100 (0 no effect, 100 complete control)): 0; Plant response rating, Cupgrass, Woolly (cupgrass, woolly; Postemergence, 125 g ai/ha, scale 0 to 100 (0 no effect, 100 complete control)): 0; Plant response rating, Cupgrass, Woolly (cupgrass, woolly; Postemergence, 250 g ai/ha, scale 0 to 100 (0 no effect, 100 complete control)): 0; Plant response rating, Cupgrass, Woolly (cupgrass, woolly; [1]): 85; Plant response rating, Cupgrass, Woolly (cupgrass, woolly; [2]): 90; Cupgrass, Woolly plant response rating (cupgrass, woolly; [3]): 80; Plant response rating, Cupgrass, Woolly (cupgrass, woolly; [4]): 95
O=C1NCC(c2ccc(C(F)(F)F)cc2)C1C(=O)Nc1cccc(F)c1F (centres unmarked) [Compound 80, N-(2,3-difluorophenyl)-2-oxo-4-[4-(trifluoromethyl)phenyl]-3-pyrrolidinecarboxamide]	30	40	50	60	70	0	0	0	45	60	0	0	0	0	0	5	0	10	35	15	Plant response rating (bromegrass, downy; Postemergence, 31 g ai/ha): 15; Plant response rating (bromegrass, downy; Postemergence, 62 g ai/ha): 15; Plant response rating (bromegrass, downy; Postemergence, 125 g ai/ha): 20; Plant response rating (bromegrass, downy; Postemergence, 250 g ai/ha): 20; Plant response rating (bromegrass, downy; Preemergence, 125 g ai/ha): 5; Plant response rating (kochia; Postemergence, 31 g ai/ha): 65; Plant response rating (kochia; Postemergence, 62 g ai/ha): 75; Plant response rating (kochia; Postemergence, 125 g ai/ha): 70; Plant response rating (kochia; Postemergence, 250 g ai/ha): 75; Plant response rating (kochia; Preemergence, 125 g ai/ha): 70; Plant response rating (kochia; Preemergence, 250 g ai/ha): 75
O=C1NC[C@H](c2cccc(C(F)(F)F)c2)[C@H]1C(=O)Nc1ccccc1F [Compound 204, (3R,4S)—N-(2-fluorophenyl)-2-oxo-4-[3-(trifluoromethyl)phenyl]-3-pyrrolidinecarboxamide]	–	35	60	98	95	–	0	0	25	30	–	0	0	75	75	20	0	45	45	20	Plant response rating, Bromegrass, Downy (bromegrass, downy; Preemergence, 125 g ai/ha): 35; Plant response rating, Kochia (kochia; Preemergence, 125 g ai/ha): 15; Plant response rating (kochia; Preemergence, 250 g ai/ha): 70
O=C1NC[C@H](c2cccc(C(F)(F)F)c2)[C@H]1C(=O)Nc1cccc(F)c1F [Compound 206]	–	50	95	85	98	–	0	35	80	65	–	75	98	98	98	25	10	70	60	45	Plant response rating, Bromegrass, Downy (bromegrass, downy; Preemergence, 125 g ai/ha): 55; Plant response rating, Kochia (kochia; Preemergence, 125 g ai/ha): 70; Plant response rating (kochia; Preemergence, 250 g ai/ha): 80
